Measured values published in the supplement of paper PMC11208160.

Test: recombinant UMI read abundance after kanamycin selection (control-corrected) (log10(CPM+1)); higher = more efficient recombination; extreme values may be limits of the assay; sequences stand for … in AGTGCAGAGAAAATCGGCCAGTTTTCTCTGCCTGCAGTCCGCATGCCGTGGGACCCCTTGGGTTCTAACCTGTTGCCTAGATTTATGCAGCGGACTGCCTTTCTCCCAAAGTGATAAACCGG…AGGTTGGTTTCACT; site = the 11-nt donor
In short: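 Values, expressed as log10(CPM+1), derive from recombinant UMI counts converted to CPM, averaged across replicates and scaled by control-derived factors. Plating was with IPTG (0.07 mM) plus kanamycin or unselected, two replicates each. The screen pooled donor and donor-binding-loop pairs for the IS621 bridge recombinase in Escherichia coli.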
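Further: IS621 bridge recombinase in Escherichia coli cells against a fixed T5 target plasmid.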

| Sequence | recombinant UMI read abundance (log10) |
| --- | --- |
| AGAGTAACATGGACCGGTTTTCCCGGTAATCCGTATTTGCA (site AGAGTAACTTG) | 2.71 |
| AGAGTATCATGGACCGGTTTTCCCGGTAATCCGTATTTGCA (site AAAGTATCTTG) | 2.57 |
| AGAGTATCATGGACCGGTTTTCCCGGTAATCCGTATTTGCA (site ACAGTATCTTG) | 2.7 |
| AGAGTATCATGGACCGGTTTTCCCGGTAATCCGTATTTGCA (site AGAGTATCTTG) | 3.29 |
| AGAGTATCATGGACCGGTTTTCCCGGTAATCCGTATTTGCA (site ATAGTATCTTG) | 1.83 |
| AGAGTATCATGGACCGGTTTTCCCGGTAATCCGTATTTGCC (site ACAGTATCTTG) | 0 |
| AGAGTATCATGGACCGGTTTTCCCGGTAATCCGTATTTGCC (site AGAGTATCTGG) | 2.98 |
| AGAGTCACATGGACCGGTTTTCCCGGTAATCCGTATTTGAG (site AGAGTCACTCT) | 2.34 |
| AGAGTGCCATGGACCGGTTTTCCCGGTAATCCGTATTTGGG (site AGAGTGCCTCC) | 0.0257 |
| AGATAATCATGGACCGGTTTTCCCGGTAATCCGTATTTGCG (site AGATAATCTCG) | 2.61 |
| AGATAGACATGGACCGGTTTTCCCGGTAATCCGTATTTGCC (site AGATAGACTGG) | 3.03 |
| AGATAGACATGGACCGGTTTTCCCGGTAATCCGTATTTGCC (site CGATAGACTGG) | 1.36 |
| AGATAGACATGGACCGGTTTTCCCGGTAATCCGTATTTGCC (site GGATAGACTGG) | 1.35 |
| AGATAGACATGGACCGGTTTTCCCGGTAATCCGTATTTGCC (site TGATAGACTGG) | 2.34 |
| AGATAGGCATGGACCGGTTTTCCCGGTAATCCGTATTTGCT (site AGAAAGGCTAG) | 0.622 |
| AGATAGGCATGGACCGGTTTTCCCGGTAATCCGTATTTGCT (site AGACAGGCTAG) | 2.12 |
| AGATAGGCATGGACCGGTTTTCCCGGTAATCCGTATTTGCT (site AGAGAGGCTAG) | 0.862 |
| AGATAGGCATGGACCGGTTTTCCCGGTAATCCGTATTTGCT (site AGATAGGCTAG) | 2.66 |
| AGATAGGCATGGACCGGTTTTCCCGGTAATCCGTATTTGTA (site AGATAGGCTTA) | 2.52 |

| Sequence | recombinant UMI read abundance (log10) |
| --- | --- |
| AGATCCCCATGGACCGGTTTTCCCGGTAATCCGTATTTGTA (site AGATCCCCTTA) | 0.595 |
| AGATGAGCATGGACCGGTTTTCCCGGTAATCCGTATTTGCA (site AGATGAGCTTG) | 2.71 |
| AGATGTTCATGGACCGGTTTTCCCGGTAATCCGTATTTGTT (site AGATGTTCTAA) | 1.45 |
| AGATTAGCATGGACCGGTTTTCCCGGTAATCCGTATTTGAT (site AGATTAGCTAT) | 2.09 |
| AGCAACGCATGGACCGGTTTTCCCGGTAATCCGTATTTGTG (site AGCAACGCTCA) | 1.36 |
| AGCAATACATGGACCGGTTTTCCCGGTAATCCGTATTTGCA (site AGCAATACTTG) | 1.73 |
| AGCAATACATGGACCGGTTTTCCCGGTAATCCGTATTTGCA (site AGGAAGACTTG) | 0 |
| AGCACGGCATGGACCGGTTTTCCCGGTAATCCGTATTTGCT (site AGCACGGCTAG) | 1.9 |
| AGCACTACATGGACCGGTTTTCCCGGTAATCCGTATTTGAC (site AGAACTACTGT) | 1.25 |
| AGCACTACATGGACCGGTTTTCCCGGTAATCCGTATTTGAC (site AGCACTACTGT) | 1.85 |
| AGCACTACATGGACCGGTTTTCCCGGTAATCCGTATTTGAC (site AGGACTACTGT) | 0.927 |
| AGCACTACATGGACCGGTTTTCCCGGTAATCCGTATTTGAC (site AGTACTACTGT) | 0.741 |
| AGCATCCCATGGACCGGTTTTCCCGGTAATCCGTATTTGGC (site AGCATCCCTGC) | 1.74 |
| AGCCAAGCATGGACCGGTTTTCCCGGTAATCCGTATTTGAG (site AACCAAGCTCT) | 0.0428 |
| AGCCAAGCATGGACCGGTTTTCCCGGTAATCCGTATTTGAG (site ACCCAAGCTCT) | 0.641 |
| AGCCAAGCATGGACCGGTTTTCCCGGTAATCCGTATTTGAG (site AGCCAAGCTCT) | 1.3 |
| AGCCAAGCATGGACCGGTTTTCCCGGTAATCCGTATTTGAG (site ATCCAAGCTCT) | 0.655 |
| AGCCGCTCATGGACCGGTTTTCCCGGTAATCCGTATTTGAT (site AGCCGCTCTAT) | 1.65 |
